By EC50 is commonly meant the concentration giving half of the maximal effect.

The assay concerns the target T1, hNPRA (Homo sapiens, UniProt P16066).
T1 construct: expressed in transfected cells
T1 sequence (P16066 33-1061): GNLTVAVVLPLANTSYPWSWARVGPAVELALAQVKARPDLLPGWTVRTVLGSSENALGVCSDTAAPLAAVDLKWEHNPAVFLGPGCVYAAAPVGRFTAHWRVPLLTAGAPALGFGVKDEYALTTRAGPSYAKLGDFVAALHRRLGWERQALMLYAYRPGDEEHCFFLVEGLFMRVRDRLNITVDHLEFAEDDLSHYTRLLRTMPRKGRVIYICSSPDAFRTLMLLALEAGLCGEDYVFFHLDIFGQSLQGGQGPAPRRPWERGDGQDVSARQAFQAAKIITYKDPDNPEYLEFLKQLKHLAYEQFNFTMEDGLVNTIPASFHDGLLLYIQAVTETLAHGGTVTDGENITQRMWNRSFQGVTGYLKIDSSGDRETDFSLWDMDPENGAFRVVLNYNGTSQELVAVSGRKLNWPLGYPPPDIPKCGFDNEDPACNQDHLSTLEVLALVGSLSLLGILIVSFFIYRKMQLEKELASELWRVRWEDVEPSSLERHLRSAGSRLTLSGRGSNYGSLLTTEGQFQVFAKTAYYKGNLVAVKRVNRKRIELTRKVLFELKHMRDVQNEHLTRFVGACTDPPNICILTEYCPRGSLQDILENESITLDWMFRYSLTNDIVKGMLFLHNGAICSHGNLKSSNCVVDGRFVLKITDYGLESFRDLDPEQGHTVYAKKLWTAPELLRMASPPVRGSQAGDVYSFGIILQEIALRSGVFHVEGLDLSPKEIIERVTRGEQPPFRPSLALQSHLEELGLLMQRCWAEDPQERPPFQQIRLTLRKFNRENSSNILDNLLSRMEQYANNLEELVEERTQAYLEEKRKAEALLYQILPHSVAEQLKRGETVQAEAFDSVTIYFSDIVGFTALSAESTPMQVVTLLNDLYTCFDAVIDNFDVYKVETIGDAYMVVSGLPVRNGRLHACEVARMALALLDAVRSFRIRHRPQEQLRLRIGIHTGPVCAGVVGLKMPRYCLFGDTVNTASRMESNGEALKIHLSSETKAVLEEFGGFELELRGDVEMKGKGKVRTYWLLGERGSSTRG
Briefly: NPRA Functional Cell Assay (cGMP HTRF, NPRA HEK JumpIn stable cells). The format is cell-based. The note with it: cGMP production, 1 hour at 37° C., 10-point dose response. Summed up:
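cGMP HTRF read-out after 1 hour compound treatment at 37° C. of human NPRA-expressing HEK JumpIn cells, 1500 cells/well, in buffer with phosphodiesterase inhibitors IBMX and RO20 (100 uM each). Signal converted to [cGMP] by calibration curve; EC50s fitted by 4-parameter logistic; 50 nM h-ANP as positive response.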
In the case of `CC(C)(C)[C@H]1CCc2nc3sc(C(=O)N[C@H](CCN4CCC(O)CC4)c4cccc(C(=O)NC5CNC5)c4)nc3cc2C1` (racemic) [Example 136, rac-(7S)-7-tert-butyl-N-[rac-(1R)-1-[3-(azetidin-3-ylcarbamoyl)phenyl]-3-(4-hydroxy-1-piperidyl)propyl]-5,6,7,8-tetrahydrothiazolo[5,4-b]quinoline-2-carboxamide], the concentration giving a half-maximal response (EC50) stood at 138 nM. With `CC(C)(C)[C@H]1CCc2nc3sc(C(=O)N[C@H](CCN4CCC(O)CC4)c4cccc(C(=O)N[C@H]5CNC[C@@H]5O)c4)nc3cc2C1` (racemic) [Example 137, rac-(7S)-7-tert-butyl-N-[rac-(1R)-3-(4-hydroxy-1-piperidyl)-1-[3-[[rac-(3S,4S)-4-hydroxypyrrolidin-3-yl]carbamoyl]phenyl]propyl]-5,6,7,8-tetrahydrothiazolo[5,4-b]quinoline-2-carboxamide], the EC50 was 176 nM. The EC50 values of the last two compounds are within 1.5-fold of each other. `CN1CC[C@H](NC(=O)c2cccc([C@@H](CCN3CCC(O)CC3)NC(=O)c3nc4cc5c(nc4s3)CC[C@H](C(C)(C)C)C5)c2)C1` (racemic) [Example 138, rac-(7S)-7-tert-butyl-N-[rac-(1R)-3-(4-hydroxy-1-piperidyl)-1-[3-[[rac-(3S)-1-methylpyrrolidin-3-yl]carbamoyl]phenyl]propyl]-5,6,7,8-tetrahydrothiazolo[5,4-b]quinoline-2-carboxamide]: the half-maximal effective concentration (EC50) stood at 210 nM. Take `CC1(C)NCCC1NC(=O)c1cccc([C@@H](CCN2CCC(O)CC2)NC(=O)c2nc3cc4c(nc3s2)CC[C@H](C(C)(C)C)C4)c1` (mixture of isomers) [Example 139, rac-(7S)-7-tert-butyl-N-[rac-(1R)-1-[3-[(2,2-dimethylpyrrolidin-3-yl)carbamoyl]phenyl]-3-(4-hydroxy-1-piperidyl)propyl]-5,6,7,8-tetrahydrothiazolo[5,4-b]quinoline-2-carboxamide]: the EC50 came out at 219 nM. To `CN1CCCC(NC(=O)c2cccc([C@@H](CCN3CCC(O)CC3)NC(=O)c3nc4cc5c(nc4s3)CC[C@H](C(C)(C)C)C5)c2)C1` (mixture of isomers) [Example 140, rac-(7S)-7-tert-butyl-N-[rac-(1R)-3-(4-hydroxy-1-piperidyl)-1-[3-[(1-methyl-3-piperidyl)carbamoyl]phenyl]propyl]-5,6,7,8-tetrahydrothiazolo[5,4-b]quinoline-2-carboxamide] belongs 224 nM; to `CN1CCC(NC(=O)c2cccc([C@@H](CCN3CCC(O)CC3)NC(=O)c3nc4cc5c(nc4s3)CC[C@H](C(C)(C)C)C5)c2)CC1` (racemic) [Example 141, rac-(7S)-7-tert-butyl-N-[rac-(1R)-3-(4-hydroxy-1-piperidy1)-1-[3-[(1-methyl-4-piperidyl)carbamoyl]phenyl]propyl]-5,6,7,8-tetrahydrothiazolo[5,4-b]quinoline-2-carboxamide], 258 nM; to `CN1CCC(CNC(=O)c2cccc([C@@H](CCN3CCC(O)CC3)NC(=O)c3nc4cc5c(nc4s3)CC[C@H](C(C)(C)C)C5)c2)C1` (mixture of isomers) [Example 142, rac-(7S)-7-tert-butyl-N-[rac-(1R)-3-(4-hydroxy-1-piperidyl)-1-[3-[(1-methylpyrrolidin-3-yl)methylcarbamoyl]phenyl]propyl]-5,6,7,8-tetrahydrothiazolo[5,4-b]quinoline-2-carboxamide], 258 nM. To `CC(C)(C)[C@H]1CCc2nc3sc(C(=O)N[C@H](CCN4CCC(O)CC4)c4cccc(C(=O)NC5CCCNC5)c4)nc3cc2C1` (mixture of isomers) [Example 143, rac-(7S)-7-tert-butyl-N-[rac-(1R)-3-(4-hydroxy-1-piperidyl)-1-[3-(3-piperidylcarbamoyl)phenyl]propyl]-5,6,7,8-tetrahydrothiazolo[5,4-b]quinoline-2-carboxamide] belongs 276 nM; to `CN1C(=O)OCC12CN(C(=O)c1cccc([C@@H](CCN3CCC(O)CC3)NC(=O)c3nc4cc5c(nc4s3)CC[C@H](C(C)(C)C)C5)c1)C2` (racemic) [Example 144, rac-(7S)-7-tert-butyl-N-[rac-(1R)-3-(4-hydroxy-1-piperidyl)-1-[3-(5-methyl-6-oxo-7-oxa-2,5-diazaspiro[3.4]octane-2-carbonyl)phenyl]propyl]-5,6,7,8-tetrahydrothiazolo[5,4-b]quinoline-2-carboxamide], 462 nM; to `CC1(O)CN(C(=O)c2cccc([C@@H](CCN3CCC(O)CC3)NC(=O)c3nc4cc5c(nc4s3)CC[C@H](C(C)(C)C)C5)c2)C1` (racemic) [Example 145, rac-(7S)-7-tert-butyl-N-[rac-(1R)-1-[3-(3-hydroxy-3-methyl-azetidine-1-carbonyl)phenyl]-3-(4-hydroxy-1-piperidyl)propyl]-5,6,7,8-tetrahydrothiazolo[5,4-b]quinoline-2-carboxamide], 553 nM.

Take `CC(C)(C)[C@H]1CCc2nc3sc(C(=O)N[C@H](CCN4CCC(O)CC4)c4cccc(C(=O)N5CCC6NCCC65)c4)nc3cc2C1` (mixture of isomers) [Example 146, rac-(7S)-7-tert-butyl-N-[rac-(1R)-1-[3-(2,3,3a,5,6,6a-hexahydro-1H-pyrrolo[3,2-b]pyrrole-4-carbonyl)phenyl]-3-(4-hydroxy-1-piperidyl)propyl]-5,6,7,8-tetrahydrothiazolo[5,4-b]quinoline-2-carboxamide]: the concentration for a half-maximal effect (EC50) was 607 nM.

With `CC(C)(C)[C@H]1CCc2nc3sc(C(=O)N[C@H](CCN4CCC(O)CC4)c4cccc(C(=O)N5CC(N)C5)c4)nc3cc2C1` (racemic) [Example 147, rac-(7S)-7-tert-butyl-N-[rac-(1R)-1-[3-(3-aminoazetidine-1-carbonyl)phenyl]-3-(4-hydroxy-1-piperidyl)propyl]-5,6,7,8-tetrahydrothiazolo[5,4-b]quinoline-2-carboxamide], it took 640 nM to reach a half-maximal effect (EC50).

`CN(C)C1CN(C(=O)c2cccc([C@@H](CCN3CCC(O)CC3)NC(=O)c3nc4cc5c(nc4s3)CC[C@H](C(C)(C)C)C5)c2)C1` (racemic) [Example 148, rac-(7S)-7-tert-butyl-N-[rac-(1R)-1-[3-[3-(dimethylamino)azetidine-1-carbonyl]phenyl]-3-(4-hydroxy-1-piperidyl)propyl]-5,6,7,8-tetrahydrothiazolo[5,4-b]quinoline-2-carboxamide] gave a half-maximal effective concentration (EC50) of 656 nM. `CN1CC(NC(=O)c2cccc([C@@H](CCN3CCC(O)CC3)NC(=O)c3nc4cc5c(nc4s3)CC[C@H](C(C)(C)C)C5)c2)CC1=O` (mixture of isomers) [Example 149, rac-(7S)-7-tert-butyl-N-[rac-(1R)-3-(4-hydroxy-1-piperidyl)-1-[3-[(1-methyl-5-oxo-pyrrolidin-3-yl)carbamoyl]phenyl]propyl]-5,6,7,8-tetrahydrothiazolo[5,4-b]quinoline-2-carboxamide] gave an EC50 of 656 nM. In the case of `CC(C)(C)[C@H]1CCc2nc3sc(C(=O)N[C@H](CCN4CCC(O)CC4)c4cccc(C(=O)NCCN5CCOCC5)c4)nc3cc2C1` (racemic) [Example 150, rac-(7S)-7-tert-butyl-N-[rac-(1R)-3-(4-hydroxy-1-piperidyl)-1-[3-(2-morpholinoethylcarbamoyl)phenyl]propyl]-5,6,7,8-tetrahydrothiazolo[5,4-b]quinoline-2-carboxamide], the 50% effective concentration (EC50) was 682 nM. This EC50 and that of the compound before are within 1.5-fold of each other.

Source of the values: US12440496B2, “Natriuretic peptide receptor a agonists useful for the treatment of cardiometabolic diseases, kidney disease and diabetes” (Merck Sharp & Dohme LLC, priority 2019, dated 2025).
